“Also recorded” adds a separate entry of the source.

The text below walks through data of patent US20130266649A1, “NOVEL PHARMACEUTICAL COMPOSITION” (priority 2010, published 2013).

Data set [1] can be described thus: Photostability: light exposure of tablets in Petri dish (ICH Q1B), impurities by HPLC. The data set is classed as physicochemical. How it is done:
Uncoated tablets, 0.5, 1 and 2 mg were exposed to ICH Photostability conditions and tested to provide baseline impurity information for comparison.

Data set [2] is described as follows: Solubility of Compound B compared with Compound A. In kind it is physicochemical. An excerpt: Experiments were undertaken to determine the acceptable level of the desolvated Compound B in a pharmaceutical dosage form and the appropriate formulation techniques.

As to `CC(=O)Nc1cccc(-n2c(=O)n(C3CC3)c(=O)c3c(Nc4ccc(I)cc4F)n(C)c(=O)c(C)c32)c1` [Compound A, N-{3-[3-cyclopropyl-5-(2-fluoro-4-iodo-phenylamino)-6,8-dimethyl-2,4,7-trioxo-3,4,6,7-tetrahydro-2H-pyrido[4,3-d]pyrimidin-1-yl]phenyl}acetamide dimethyl sulfoxide solvate], the photo-stability entry in data set [1] was “sensitive to photo-induced degradation”.

Turning to `CC(=O)Nc1cccc(-n2c(=O)n(C3CC3)c(=O)c3c(Nc4ccc(I)cc4F)n(C)c(=O)c(C)c32)c1` [Compound B, N-{3-[3-cyclopropyl-5-(2-fluoro-4-iodo-phenylamino)-6,8-dimethyl-2,4,7-trioxo-3,4,6,7-tetrahydro-2H-pyrido[4,3-d]pyrimidin-1-yl]phenyl}acetamide], the “solubility compared with Compound A” value in data set [2] is “significantly less soluble; also recorded: much less soluble”.
